Earlier results in patent publication US20140322314A1, “Omega-3 Fatty Acid Formulations for Use as Pharmaceutical Treatment” (Matinas BioPharma, Inc., priority 2013, published 2014).

Conditions: in vivo

bioavailable | absorbed at rates | Compound
approximately 24% |  | CC(C)n1c(/C=C/C(O)CC(O)CC(=O)O)c(-c2ccc(F)cc2)c2ccccc21 (centres unmarked) [fluvastatin]
 | about 30% | CC[C@H](C)C(=O)O[C@H]1C[C@@H](C)C=C2C=C[C@H](C)[C@H](CC[C@@H]3C[C@@H](O)CC(=O)O3)[C@H]21 [lovastatin]
